Measurements as given in ChEMBL document CHEMBL4118196, “Design and synthesis of a series of bioavailable fatty acid synthase (FASN) KR domain inhibitors for cancer therapy” (Bioorg Med Chem Lett, 2018).
Values belong to the compound of their own block, whether it stands above or below them.

Experiments:
[1] = tested on: K562; experiment: Antiproliferative activity against human K562 cells in culture medium with 10% lipid-reduced serum after 4 days in presence of palmitate by ATP-Glo assay; type: functional, cell-based; settings: K562, 96 h
[2] = tested on: U-266; experiment: Antiproliferative activity against human U266 cells in culture medium with 10% lipid-reduced serum after 4 days in presence of palmitate by ATP-Glo assay; type: functional, cell-based; settings: U-266, 96 h
[3] = tested on: OCI-Ly1; experiment: Antiproliferative activity against human OCI-LY1 cells in culture medium with 10% lipid-reduced serum after 4 days by ATP-Glo assay; type: functional, cell-based; settings: OCI-Ly1, 96 h
[4] = Stability in mouse plasma; type: ADME, cell-free
[5] = Permeability in human Caco2 cells; type: ADME, cell-based; settings: Caco-2, read-out: permeability
[6] = tested on: A2780; experiment: Antiproliferative activity against human A2780 cells in culture medium with 10% lipid-reduced serum after 4 days by MTT assay; type: functional, cell-based; settings: A2780, 96 h
[7] = Antiproliferative activity against human LL cells in culture medium with 10% lipid-reduced serum after 4 days in presence of palmitate by ATP-Glo assay; type: functional, cell-based; settings: 96 h
[8] = tested on: BT-20; experiment: Antiproliferative activity against human BT20 cells in culture medium with 10% lipid-reduced serum after 4 days in presence of palmitate by ATP-Glo assay; type: functional, cell-based; settings: BT-20, 96 h
[9] = Antiproliferative activity against human LL cells in culture medium with 10% lipid-reduced serum after 4 days by ATP-Glo assay; type: functional, cell-based; settings: 96 h
[10] = tested on: NCI-H929; experiment: Antiproliferative activity against human NCI-H929 cells in culture medium with 10% lipid-reduced serum after 4 days by ATP-Glo assay; type: functional, cell-based; settings: NCI-H929, 96 h
[11] = tested on: A2780; experiment: Antiproliferative activity against human A2780 cells in culture medium with 10% lipid-reduced serum after 4 days in presence of palmitate by MTT assay; type: functional, cell-based; settings: A2780, 96 h
[12] = target: Cytochrome P450 3A4 (Homo sapiens, UniProt P08684); experiment: Inhibition of human CYP3A4; type: ADME
[13] = Cmax in mouse at 10 mg/kg, po; type: ADME, organism-based; set-up: dose 10 mg/kg, route oral; settings: in vivo
[14] = target: Cytochrome P450 2C8 (Homo sapiens, UniProt P10632); experiment: Inhibition of human CYP2C8; type: ADME
Chain of Cytochrome P450 2C8 (P10632 whole entry): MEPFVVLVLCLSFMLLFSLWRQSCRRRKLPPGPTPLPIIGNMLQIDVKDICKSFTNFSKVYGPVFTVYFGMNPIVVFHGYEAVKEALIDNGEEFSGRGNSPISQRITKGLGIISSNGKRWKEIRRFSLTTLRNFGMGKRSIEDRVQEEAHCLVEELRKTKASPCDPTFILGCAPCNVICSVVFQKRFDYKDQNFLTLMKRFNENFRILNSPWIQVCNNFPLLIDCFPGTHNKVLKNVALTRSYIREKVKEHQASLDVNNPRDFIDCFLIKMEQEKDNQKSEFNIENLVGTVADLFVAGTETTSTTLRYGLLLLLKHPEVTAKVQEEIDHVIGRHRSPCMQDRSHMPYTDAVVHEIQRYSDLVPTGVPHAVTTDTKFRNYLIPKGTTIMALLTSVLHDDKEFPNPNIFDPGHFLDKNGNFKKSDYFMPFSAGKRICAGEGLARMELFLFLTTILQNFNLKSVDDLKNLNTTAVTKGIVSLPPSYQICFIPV

[15] = tested on: U2932; experiment: Antiproliferative activity against human U2932 cells in culture medium with 10% lipid-reduced serum after 4 days in presence of palmitate by ATP-Glo assay; type: functional, cell-based; settings: U2932, 96 h
[16] = Tmax in mouse at 10 mg/kg, po; type: ADME, organism-based; settings: in vivo
[17] = tested on: LP-1; experiment: Antiproliferative activity against human LP-1 cells in culture medium with 10% lipid-reduced serum after 4 days in presence of palmitate by ATP-Glo assay; type: functional, cell-based; settings: LP-1, 96 h
[18] = Stability in mouse microsomes; type: ADME, Microsome
[19] = Antiproliferative activity against human MM1R cells in culture medium with 10% lipid-reduced serum after 4 days by ATP-Glo assay; type: functional, cell-based; settings: MM.1R, 96 h
[20] = target: Cytochrome P450 2C19 (Homo sapiens, UniProt P33261); experiment: Inhibition of human CYP2C19; type: ADME
Chain of Cytochrome P450 2C19 (P33261 whole entry): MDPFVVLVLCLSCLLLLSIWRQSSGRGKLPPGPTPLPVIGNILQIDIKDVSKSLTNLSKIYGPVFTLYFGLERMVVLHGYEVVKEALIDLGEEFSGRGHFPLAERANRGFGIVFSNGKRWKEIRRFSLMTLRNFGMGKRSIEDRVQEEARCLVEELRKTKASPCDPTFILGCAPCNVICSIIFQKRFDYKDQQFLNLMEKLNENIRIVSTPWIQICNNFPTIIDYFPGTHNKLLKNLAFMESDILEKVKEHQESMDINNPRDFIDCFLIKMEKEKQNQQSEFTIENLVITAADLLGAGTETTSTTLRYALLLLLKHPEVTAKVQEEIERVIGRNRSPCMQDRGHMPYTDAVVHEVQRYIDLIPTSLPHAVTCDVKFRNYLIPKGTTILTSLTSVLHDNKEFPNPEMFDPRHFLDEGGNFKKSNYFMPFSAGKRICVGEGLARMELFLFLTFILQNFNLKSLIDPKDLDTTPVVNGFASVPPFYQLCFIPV

[21] = tested on: LNCaP; experiment: Antiproliferative activity against human LNCAP cells in culture medium with 10% lipid-reduced serum after 4 days by ATP-Glo assay; type: functional, cell-based; settings: 96 h
[22] = tested on: MV4-11; experiment: Antiproliferative activity against human MV4-11 cells in culture medium with 10% lipid-reduced serum after 4 days in presence of palmitate by ATP-Glo assay; type: functional, cell-based; settings: MV4-11, 96 h
[23] = tested on: NCI-H460; experiment: Antiproliferative activity against human NCI-H460 cells in culture medium with 10% lipid-reduced serum after 4 days in presence of palmitate by ATP-Glo assay; type: functional, cell-based; settings: NCI-H460, 96 h
[24] = tested on: PC-3M; experiment: Antiproliferative activity against human PC3M cells in culture medium with 10% lipid-reduced serum after 4 days by ATP-Glo assay; type: functional, cell-based; settings: 96 h
[25] = tested on: HT-29; experiment: Antiproliferative activity against human HT-29 cells in culture medium with 10% lipid-reduced serum after 4 days by ATP-Glo assay; type: functional, cell-based; settings: HT-29, 96 h
[26] = tested on: MV4-11; experiment: Antiproliferative activity against human MV4-11 cells in culture medium with 10% lipid-reduced serum after 4 days by ATP-Glo assay; type: functional, cell-based; settings: MV4-11, 96 h
[27] = tested on: K562; experiment: Antiproliferative activity against human K562 cells in culture medium with 10% lipid-reduced serum after 4 days by ATP-Glo assay; type: functional, cell-based; settings: K562, 96 h
[28] = tested on: HL-60; experiment: Antiproliferative activity against human HL60 cells in culture medium with 10% lipid-reduced serum after 4 days in presence of palmitate by ATP-Glo assay; type: functional, cell-based; settings: HL-60, 96 h
[29] = Protein binding in human plasma; type: ADME, cell-free; settings: read-out: PPB (converted)
[30] = target: Cytochrome P450 1A2 (Homo sapiens, UniProt P05177); experiment: Inhibition human CYP1A2; type: ADME
Chain of Cytochrome P450 1A2 (P05177 whole entry): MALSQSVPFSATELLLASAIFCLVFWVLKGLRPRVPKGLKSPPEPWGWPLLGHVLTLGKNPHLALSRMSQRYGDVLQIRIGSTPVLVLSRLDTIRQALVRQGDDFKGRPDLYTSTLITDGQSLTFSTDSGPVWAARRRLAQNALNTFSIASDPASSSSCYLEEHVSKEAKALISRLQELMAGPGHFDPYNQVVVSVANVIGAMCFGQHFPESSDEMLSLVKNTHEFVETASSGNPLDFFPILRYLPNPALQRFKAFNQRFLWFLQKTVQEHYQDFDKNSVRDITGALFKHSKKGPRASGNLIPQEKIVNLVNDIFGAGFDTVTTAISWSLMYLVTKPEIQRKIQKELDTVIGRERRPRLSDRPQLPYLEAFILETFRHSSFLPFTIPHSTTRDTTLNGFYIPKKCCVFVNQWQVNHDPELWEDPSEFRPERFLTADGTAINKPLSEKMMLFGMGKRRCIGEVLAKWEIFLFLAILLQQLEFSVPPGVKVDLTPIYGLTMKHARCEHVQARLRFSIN

[31] = Oral bioavailability in mouse at 10 mg/kg; type: ADME, organism-based; settings: in vivo
[32] = AUC in mouse at 10 mg/kg, po; type: ADME, organism-based; settings: in vivo
[33] = Half life in mouse at 10 mg/kg, po; type: ADME, organism-based; settings: in vivo
[34] = tested on: NCI-H929; experiment: Antiproliferative activity against human NCI-H929 cells in culture medium with 10% lipid-reduced serum after 4 days in presence of palmitate by ATP-Glo assay; type: functional, cell-based; settings: NCI-H929, 96 h
[35] = tested on: HL-60; experiment: Antiproliferative activity against human HL60 cells in culture medium with 10% lipid-reduced serum after 4 days by ATP-Glo assay; type: functional, cell-based; settings: HL-60, 96 h
[36] = Protein binding in mouse plasma; type: ADME, cell-free; settings: read-out: PPB (converted)
[37] = target: Cytochrome P450 2C9 (Homo sapiens, UniProt P11712); experiment: Inhibition of human CYP2C9; type: ADME
Chain of Cytochrome P450 2C9 (P11712 whole entry): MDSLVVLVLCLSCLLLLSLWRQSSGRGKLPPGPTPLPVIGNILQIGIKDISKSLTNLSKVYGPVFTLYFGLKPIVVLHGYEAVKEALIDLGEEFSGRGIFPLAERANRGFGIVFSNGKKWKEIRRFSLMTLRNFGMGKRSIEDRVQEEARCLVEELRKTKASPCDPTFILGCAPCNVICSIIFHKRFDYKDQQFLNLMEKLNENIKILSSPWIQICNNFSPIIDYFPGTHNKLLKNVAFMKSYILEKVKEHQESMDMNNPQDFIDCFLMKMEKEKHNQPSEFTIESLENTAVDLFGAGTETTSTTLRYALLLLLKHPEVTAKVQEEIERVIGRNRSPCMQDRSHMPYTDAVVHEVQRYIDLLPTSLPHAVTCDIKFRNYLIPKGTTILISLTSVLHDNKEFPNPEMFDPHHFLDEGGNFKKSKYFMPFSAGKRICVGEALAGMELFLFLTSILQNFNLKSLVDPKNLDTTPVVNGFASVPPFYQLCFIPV

[38] = tested on: MDA-MB-468; experiment: Antiproliferative activity against human MDA-MB-468 cells in culture medium with 10% lipid-reduced serum after 4 days in presence of palmitate by ATP-Glo assay; type: functional, cell-based; settings: MDA-MB-468, 96 h
[39] = tested on: MDA-MB-468; experiment: Antiproliferative activity against human MDA-MB-468 cells in culture medium with 10% lipid-reduced serum after 4 days by ATP-Glo assay; type: functional, cell-based; settings: MDA-MB-468, 96 h
[40] = tested on: A549; experiment: Antiproliferative activity against human A549 cells in culture medium with 10% lipid-reduced serum after 4 days in presence of palmitate by ATP-Glo assay; type: functional, cell-based; settings: A549, 96 h
[41] = tested on: OCI-Ly1; experiment: Antiproliferative activity against human OCI-LY1 cells in culture medium with 10% lipid-reduced serum after 4 days in presence of palmitate by ATP-Glo assay; type: functional, cell-based; settings: OCI-Ly1, 96 h
[42] = Antiproliferative activity against human MM1R cells in culture medium with 10% lipid-reduced serum after 4 days in presence of palmitate by ATP-Glo assay; type: functional, cell-based; settings: MM.1R, 96 h
[43] = tested on: A549; experiment: Antiproliferative activity against human A549 cells in culture medium with 10% lipid-reduced serum after 4 days by ATP-Glo assay; type: functional, cell-based; settings: A549, 96 h
[44] = tested on: U2932; experiment: Antiproliferative activity against human U2932 cells in culture medium with 10% lipid-reduced serum after 4 days by ATP-Glo assay; type: functional, cell-based; settings: U2932, 96 h
[45] = tested on: NCI-H460; experiment: Antiproliferative activity against human NCI-H460 cells in culture medium with 10% lipid-reduced serum after 4 days by ATP-Glo assay; type: functional, cell-based; settings: NCI-H460, 96 h
[46] = target: Cytochrome P450 2D6 (Homo sapiens, UniProt P10635); experiment: Inhibition of human CYP2D6; type: ADME
Chain of Cytochrome P450 2D6 (P10635 whole entry): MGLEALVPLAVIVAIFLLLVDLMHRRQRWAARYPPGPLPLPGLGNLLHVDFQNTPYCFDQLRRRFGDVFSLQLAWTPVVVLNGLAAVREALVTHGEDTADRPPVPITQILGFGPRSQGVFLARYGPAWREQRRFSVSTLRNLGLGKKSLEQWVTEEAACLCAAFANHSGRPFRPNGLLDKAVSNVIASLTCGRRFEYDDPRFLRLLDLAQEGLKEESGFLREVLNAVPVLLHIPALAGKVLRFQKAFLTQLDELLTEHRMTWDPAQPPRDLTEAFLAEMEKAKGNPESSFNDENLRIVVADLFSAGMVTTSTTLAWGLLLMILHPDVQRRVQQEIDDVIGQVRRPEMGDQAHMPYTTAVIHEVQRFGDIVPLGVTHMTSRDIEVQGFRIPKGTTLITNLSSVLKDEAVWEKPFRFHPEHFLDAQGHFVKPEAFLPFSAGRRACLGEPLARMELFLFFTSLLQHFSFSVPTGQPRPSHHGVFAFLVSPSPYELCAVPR

[47] = target: Fatty acid synthase (Homo sapiens, UniProt P49327)
Chain of Fatty acid synthase (P49327 whole entry): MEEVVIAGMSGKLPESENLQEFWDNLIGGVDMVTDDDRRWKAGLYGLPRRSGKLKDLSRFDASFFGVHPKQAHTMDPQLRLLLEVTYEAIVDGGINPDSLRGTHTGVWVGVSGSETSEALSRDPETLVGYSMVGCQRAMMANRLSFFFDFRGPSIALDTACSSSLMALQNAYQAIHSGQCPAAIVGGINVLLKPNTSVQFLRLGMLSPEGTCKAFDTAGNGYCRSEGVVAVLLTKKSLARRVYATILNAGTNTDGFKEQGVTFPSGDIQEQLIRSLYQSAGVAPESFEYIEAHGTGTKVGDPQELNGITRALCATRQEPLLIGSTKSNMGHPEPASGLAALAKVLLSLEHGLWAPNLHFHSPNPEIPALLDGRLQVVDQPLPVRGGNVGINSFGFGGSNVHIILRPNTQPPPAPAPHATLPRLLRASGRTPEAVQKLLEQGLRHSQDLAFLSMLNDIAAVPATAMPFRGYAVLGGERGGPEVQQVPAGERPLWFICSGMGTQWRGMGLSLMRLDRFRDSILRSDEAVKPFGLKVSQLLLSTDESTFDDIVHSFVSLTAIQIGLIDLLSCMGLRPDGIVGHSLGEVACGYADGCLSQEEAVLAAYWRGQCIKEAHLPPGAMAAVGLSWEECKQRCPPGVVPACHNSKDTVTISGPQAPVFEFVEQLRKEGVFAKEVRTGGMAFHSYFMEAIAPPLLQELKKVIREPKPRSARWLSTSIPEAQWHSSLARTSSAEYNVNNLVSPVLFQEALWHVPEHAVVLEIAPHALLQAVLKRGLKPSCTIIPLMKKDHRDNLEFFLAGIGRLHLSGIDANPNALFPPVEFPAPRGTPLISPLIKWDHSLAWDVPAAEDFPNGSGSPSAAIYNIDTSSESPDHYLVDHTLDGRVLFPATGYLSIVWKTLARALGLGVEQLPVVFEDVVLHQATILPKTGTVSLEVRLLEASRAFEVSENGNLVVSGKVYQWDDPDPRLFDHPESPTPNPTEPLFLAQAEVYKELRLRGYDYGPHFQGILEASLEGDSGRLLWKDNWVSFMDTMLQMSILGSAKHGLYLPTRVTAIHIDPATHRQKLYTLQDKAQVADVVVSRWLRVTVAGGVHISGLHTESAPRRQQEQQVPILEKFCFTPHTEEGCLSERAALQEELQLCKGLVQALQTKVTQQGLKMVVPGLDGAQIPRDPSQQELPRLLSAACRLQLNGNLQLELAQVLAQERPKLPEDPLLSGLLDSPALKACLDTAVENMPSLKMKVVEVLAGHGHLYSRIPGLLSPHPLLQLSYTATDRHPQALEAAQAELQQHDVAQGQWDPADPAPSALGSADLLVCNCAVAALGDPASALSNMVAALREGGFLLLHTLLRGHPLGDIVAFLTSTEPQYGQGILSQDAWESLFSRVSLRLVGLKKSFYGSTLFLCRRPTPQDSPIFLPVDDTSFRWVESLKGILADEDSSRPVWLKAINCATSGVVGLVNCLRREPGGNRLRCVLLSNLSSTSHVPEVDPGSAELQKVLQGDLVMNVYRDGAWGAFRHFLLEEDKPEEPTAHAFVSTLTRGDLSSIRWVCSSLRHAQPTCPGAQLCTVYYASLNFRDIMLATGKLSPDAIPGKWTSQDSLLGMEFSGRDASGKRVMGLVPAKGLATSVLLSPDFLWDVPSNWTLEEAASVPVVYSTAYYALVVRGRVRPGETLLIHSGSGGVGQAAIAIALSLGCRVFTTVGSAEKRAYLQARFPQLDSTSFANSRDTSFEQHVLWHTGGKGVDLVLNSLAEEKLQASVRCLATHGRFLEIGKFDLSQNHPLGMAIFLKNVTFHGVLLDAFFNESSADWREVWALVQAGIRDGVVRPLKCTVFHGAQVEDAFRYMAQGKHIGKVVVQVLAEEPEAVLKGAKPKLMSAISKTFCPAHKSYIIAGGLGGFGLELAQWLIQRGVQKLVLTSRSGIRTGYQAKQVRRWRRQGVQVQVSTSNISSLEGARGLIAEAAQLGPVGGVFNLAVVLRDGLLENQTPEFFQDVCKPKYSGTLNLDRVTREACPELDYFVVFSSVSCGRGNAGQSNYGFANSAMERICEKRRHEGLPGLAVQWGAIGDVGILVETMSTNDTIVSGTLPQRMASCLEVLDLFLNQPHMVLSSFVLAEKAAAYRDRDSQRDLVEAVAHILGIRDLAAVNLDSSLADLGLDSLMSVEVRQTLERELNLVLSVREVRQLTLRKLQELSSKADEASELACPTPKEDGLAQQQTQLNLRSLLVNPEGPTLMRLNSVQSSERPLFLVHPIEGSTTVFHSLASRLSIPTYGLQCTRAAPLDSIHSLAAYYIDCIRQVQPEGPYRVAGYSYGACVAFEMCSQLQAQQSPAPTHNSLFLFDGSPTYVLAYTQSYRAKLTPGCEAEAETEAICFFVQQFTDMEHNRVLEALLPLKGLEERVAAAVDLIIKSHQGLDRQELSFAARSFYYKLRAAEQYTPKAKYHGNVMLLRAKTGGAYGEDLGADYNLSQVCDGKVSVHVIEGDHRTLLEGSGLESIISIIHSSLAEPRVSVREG
Description: Inhibition of human full length FASN using [3H]-acetyl-CoA/malonyl-CoA as substrate after 60 mins in presence of NADPH by scintillation proximity assay

Structure (SMILES): Cn1cc(-c2ccc(-c3ccc(C4=NC5(CC5)C(=O)N4C[C@@H]4CCN(C(=O)C5CC5)C4)cc3)cc2)cn1
EC50 [1]: 9330 nM
EC50 [2]: > 10000 nM
EC50 [3]: 55 nM
Stability [4]: Stable
Papp [5]: 7.1 ×10⁻⁶ cm/s
EC50 [6]: 13 nM
EC50 [7]: 9330 nM
EC50 [8]: > 10000 nM
EC50 [9]: 590 nM
EC50 [10]: 3720 nM
EC50 [11]: > 10000 nM
IC50 [12]: > 10000 nM
Cmax [13]: 2030 ng/mL
IC50 [14]: > 10000 nM
EC50 [15]: 3020 nM
Tmax [16]: 2 h
EC50 [17]: > 10000 nM
Stability [18]: Stable
EC50 [19]: 170 nM
IC50 [20]: > 10000 nM
EC50 [21]: 66 nM
EC50 [22]: > 10000 nM
EC50 [23]: > 10000 nM
EC50 [24]: 25 nM
EC50 [25]: 7940 nM
EC50 [26]: 59 nM
EC50 [27]: 110 nM
EC50 [28]: 6310 nM
fraction unbound [29]: 0.059
IC50 [30]: > 10000 nM
bioavailability [31]: 60.6%
AUC [32]: 11100 ng·h/mL
half-life [33]: 2.5 h
EC50 [34]: > 10000 nM
EC50 [35]: 120 nM
fraction unbound [36]: 0.034
IC50 [37]: 7900 nM
EC50 [38]: > 10000 nM
EC50 [39]: 26 nM
EC50 [40]: > 10000 nM
EC50 [41]: 6760 nM
EC50 [42]: > 10000 nM
EC50 [43]: 20 nM
EC50 [44]: 190 nM
EC50 [45]: 36 nM
IC50 [46]: > 10000 nM

Structure (SMILES): O=C([C@H]1CCCO1)N1CC[C@@H](CN2C(=O)C3(CC3)N=C2c2ccc(-c3ccc4occc4c3)cc2)C1
IC50 [47]: 300 nM

Structure (SMILES): O=C(CC(F)(F)F)N1CC[C@@H](CN2C(=O)C3(CC3)N=C2c2ccc(-c3ccc4occc4c3)cc2)C1
IC50 [47]: 170 nM

Structure (SMILES): CC1(C(=O)N2CC[C@@H](CN3C(=O)C4(CC4)N=C3c3ccc(-c4ccc5occc5c4)cc3)C2)CC1
IC50 [47]: 28 nM

Structure (SMILES): Cn1ncc2cc(-c3cnc(C4=NC5(CC5)C(=O)N4C[C@@H]4CCN(C(=O)C5CC5)C4)nc3)ccc21
IC50 [47]: 33100 nM

Structure (SMILES): O=C([C@@H]1CCCO1)N1CC[C@@H](CN2C(=O)C3(CC3)N=C2c2ccc(-c3ccc4occc4c3)cc2)C1
IC50 [47]: 79 nM

Structure (SMILES): N#CC1(C(=O)N2CC[C@@H](CN3C(=O)C4(CC4)N=C3c3ccc(-c4ccc5occc5c4)cc3)C2)CC1
IC50 [47]: 590 nM

Further compounds by falling IC50 [47], results first:

IC50 [47]: 450 nM
Structure (SMILES): Cn1ccc(C(=O)N2CC[C@@H](CN3C(=O)C4(CC4)N=C3c3ccc(-c4ccc5occc5c4)cc3)C2)n1

IC50 [47]: 36 nM
Structure (SMILES): O=C(N1CC[C@@H](CN2C(=O)C3(CC3)N=C2c2ccc(-c3ccc4occc4c3)cc2)C1)C1(O)CC1

IC50 [47]: 23 nM
Structure (SMILES): O=C(C1CC1)N1CC[C@@H](CN2C(=O)C3(CC3)N=C2c2ccc(-c3ccc(-c4ccncc4)cc3)cc2)C1
